Test results reported in patent US20240025919A1, “AZA-TETRACYCLIC OXAZEPINE COMPOUNDS AND USES THEREOF” (Genentech, Inc., priority 2022, published 2024).

Experiments:
KRAS WT = KRAS WT (Homo sapiens (Human), UniProt P01116); assay: KRAS WT Biochemical Assay, BODIPY-GDP Exchange TR-FRET (Example 502; 0.06 nM KRAS WT, 15 nM GDP, 300 nM SOS1, 120-minute incubation); details: read-out: KRas HTRF IC50
Outline: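 IC50 from a 4-parameter Hill fit of percent inhibition, itself the TR-FRET 520/490 nm ratio scaled between DMSO and a fully inhibiting control. Reaction: 300 nM SOS1 and 300 nM BODIPY-GDP added to preformed 0.06 nM KRAS WT/15 nM GDP/Tb-streptavidin complex; 120 min incubation; pH 7.5 HEPES, MgCl2, DTT.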

KRAS G12D = KRAS G12D (Homo sapiens (Human), UniProt P01116, G12D); assay: KRAS G12D LoEnz Biochemical Assay, BODIPY-GDP Exchange TR-FRET (SOS1-mediated nucleotide exchange); details: read-out: KRas (G12D) GDP HTRF IC50
Sequence of KRAS G12D (P01116-2 other isoform, or with tags, fused parts or gaps G12D): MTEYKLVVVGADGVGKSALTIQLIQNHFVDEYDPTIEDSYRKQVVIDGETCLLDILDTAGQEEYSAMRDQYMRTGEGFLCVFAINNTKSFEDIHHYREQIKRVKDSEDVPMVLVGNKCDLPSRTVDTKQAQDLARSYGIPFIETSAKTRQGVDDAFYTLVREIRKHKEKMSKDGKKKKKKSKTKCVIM

Sequence of KRAS WT (P01116-2 other isoform, or with tags, fused parts or gaps): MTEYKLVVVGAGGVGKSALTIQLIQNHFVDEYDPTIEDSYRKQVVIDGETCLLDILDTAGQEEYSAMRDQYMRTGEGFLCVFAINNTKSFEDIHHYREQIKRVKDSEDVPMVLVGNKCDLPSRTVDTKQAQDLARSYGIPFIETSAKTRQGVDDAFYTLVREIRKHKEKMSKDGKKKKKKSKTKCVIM

SMILES: Cc1c(F)c(N)cc(-c2nc3c4c(nc(OCC56C[C@@H](F)CN5C[C@H](F)C6)nc4c2F)N2C[C@H]4CC[C@H](N4)[C@H]2[C@H](C)O3)c1C(F)(F)F [Compound 140, 5-((5S,5aS,6S,9R)-12-(((2R,6R)-2,6-Difluorotetrahydro-1H-pyrrolizin-7a(5H)-yl)methoxy)-1-fluoro-5-methyl-5a,6,7,8,9,10-hexahydro-5H-4-oxa-3,10a,11,13,14-pentaaza-6,9-methanonaphtho[1,8-ab]heptalen-2-yl)-2-fluoro-3-methyl-4-(trifluoromethyl)aniline]
- IC50 (KRAS WT): 18.4 nM
- IC50 (KRAS G12D): 0.14 nM

SMILES: Cc1c(F)c(N)cc(-c2nc3c4c(nc(OC[C@]56C[C@H](F)CN5C[C@H](F)C6)nc4c2F)N2C[C@H]4CC[C@H](N4)[C@H]2[C@H](C)O3)c1C(F)(F)F [Compound 141, 5-((5S,5aS,6S,9R)-12-(((2R,6S,7ar)-2,6-Difluorotetrahydro-1H-pyrrolizin-7a(5H)-yl)methoxy)-1-fluoro-5-methyl-5a,6,7,8,9,10-hexahydro-5H-4-oxa-3,10a,11,13,14-pentaaza-6,9-methanonaphtho[1,8-ab]heptalen-2-yl)-2-fluoro-3-methyl-4-(trifluoromethyl)aniline]
- IC50 (KRAS WT): 85 nM
- IC50 (KRAS G12D): 0.26 nM

SMILES: Cc1c(F)c(N)cc(-c2nc3c4c(nc(OC[C@@]56C[C@H](F)CN5C[C@H](F)C6)nc4c2F)N2C[C@H]4CC[C@H](N4)[C@H]2[C@H](C)O3)c1C(F)(F)F [Compound 142, 5-((5S,5aS,6S,9R)-12-(((2R,6S,7as)-2,6-Difluorotetrahydro-1H-pyrrolizin-7a(5H)-yl)methoxy)-1-fluoro-5-methyl-5a,6,7,8,9,10-hexahydro-5H-4-oxa-3,10a,11,13,14-pentaaza-6,9-methanonaphtho[1,8-ab]heptalen-2-yl)-2-fluoro-3-methyl-4-(trifluoromethyl)aniline]
- IC50 (KRAS WT): 33.2 nM
- IC50 (KRAS G12D): 0.2 nM

SMILES: Cc1c(F)c(N)cc(-c2nc3c4c(nc(OC[C@H](F)CN5CC6(COC6)C5)nc4c2F)N2C[C@H]4CC[C@H](N4)[C@H]2[C@H](C)O3)c1C(F)(F)F [Compound 144]
- IC50 (KRAS WT): 99.5 nM
- IC50 (KRAS G12D): 0.5 nM

SMILES: Cc1c(F)c(N)cc(-c2nc3c4c(nc(OC[C@@H](F)CN5CC6(COC6)C5)nc4c2F)N2C[C@H]4CC[C@H](N4)[C@H]2[C@H](C)O3)c1C(F)(F)F [Compound 145]
- IC50 (KRAS WT): 171 nM
- IC50 (KRAS G12D): 0.67 nM

SMILES: Cc1c(F)c(N)cc(-c2nc3c4c(nc(OC[C@@H](F)CN5CC(CO)(CO)C5)nc4c2F)N2C[C@H]4CC[C@H](N4)[C@H]2[C@H](C)O3)c1C(F)(F)F [Compound 146]
- IC50 (KRAS WT): 114 nM
- IC50 (KRAS G12D): 0.76 nM

SMILES: Cc1c(F)c(N)cc(-c2nc3c4c(nc(OCCC5(N6CCOCC6)COC5)nc4c2F)N2C[C@H]4CC[C@H](N4)[C@H]2[C@H](C)O3)c1C(F)(F)F [Compound 149, 2-Fluoro-5-((5S,5aS,6S,9R)-1-fluoro-5-methyl-12-(2-(3-morpholinooxetan-3-yl)ethoxy)-5a,6,7,8,9,10-hexahydro-5H-4-oxa-3,10a,11,13,14-pentaaza-6,9-methanonaphtho[1,8-ab]heptalen-2-yl)-3-methyl-4-(trifluoromethyl)aniline]
- IC50 (KRAS WT): 5450 nM
- IC50 (KRAS G12D): 18.4 nM

SMILES: Cc1c(F)c(N)cc(-c2nc3c4c(nc(OCC[C@@H]5CC[C@H]6COCCN56)nc4c2F)N2C[C@H]4CC[C@H](N4)[C@H]2[C@H](C)O3)c1C(F)(F)F [Compound 154, 2-Fluoro-5-((5S,5aS,6S,9R)-1-fluoro-12-(2-((6S,8aS)-hexahydro-1H-pyrrolo[2,1-c][1,4]oxazin-6-yl)ethoxy)-5-methyl-5a,6,7,8,9,10-hexahydro-5H-4-oxa-3,10a,11,13,14-pentaaza-6,9-methanonaphtho[1,8-ab]heptalen-2-yl)-3-methyl-4-(trifluoromethyl)aniline]
- IC50 (KRAS WT): 118 nM
- IC50 (KRAS G12D): 0.47 nM

SMILES: C[C@@H]1Oc2nc(-c3cc(N)c(F)c(F)c3C(F)(F)F)c(F)c3nc(OCC45CCN4CC(F)(F)C5)nc(c23)N2C[C@H]3CC[C@H](N3)[C@@H]12 (stereo partly drawn) [Compound 155, 5-((5S,5aS,6S,9R)-12-((3,3-difluoro-1-azabicyclo[3.2.0]heptan-5-yl)methoxy)-1-fluoro-5-methyl-5a,6,7,8,9,10-hexahydro-5H-4-oxa-3,10a,11,13,14-pentaaza-6,9-methanonaphtho[1,8-ab]heptalen-2-yl)-2,3-difluoro-4-(trifluoromethyl)aniline]
- IC50 (KRAS WT): 31.5 nM
- IC50 (KRAS G12D): 0.22 nM

SMILES: C[C@@H]1Oc2nc(-c3cc(N)cc(F)c3C(F)(F)F)c(F)c3nc(OCC4CCC5N4CCOC5(C)C)nc(c23)N2C[C@H]3CC[C@H](N3)[C@@H]12 (stereo partly drawn) [Compound 157, 3-((5S,5aS,6S,9R)-12-((1,1-Dimethylhexahydro-1H-pyrrolo[2,1-c][1,4]oxazin-6-yl)methoxy)-1-fluoro-5-methyl-5a,6,7,8,9,10-hexahydro-5H-4-oxa-3,10a,11,13,14-pentaaza-6,9-methanonaphtho[1,8-ab]heptalen-2-yl)-5-fluoro-4-(trifluoromethyl)aniline]
- IC50 (KRAS WT): 45.6 nM
- IC50 (KRAS G12D): 0.55 nM

SMILES: Cc1c(F)c(N)cc(-c2nc3c4c(nc(OC[C@H]5[C@H](C#N)CCN5C)nc4c2F)N2C[C@H]4CC[C@H](N4)[C@H]2[C@H](C)O3)c1C(F)(F)F [Compound 161, (2R,3R)-2-((((5S,5aS,6S,9R)-2-(5-Amino-4° fluoro-3-methyl-2-(trifluoromethylo)henyl)-1-fluoro-5-methyl-5a,6,7,8,9,10-hexahydro-5H-4-oxa-3,10a,11,13,14-pentaaza-6,9-methanonaphtho[1,8-ab]heptalen-12-yl)oxy)methyl)-1-methylpyrrolidine-3-carbonitrile]
- IC50 (KRAS WT): 1330 nM
- IC50 (KRAS G12D): 7.61 nM

SMILES: Cc1c(F)c(N)cc(-c2nc3c4c(nc(OC[C@H]5[C@@H](O)CCN5C)nc4c2F)N2C[C@H]4CC[C@H](N4)[C@H]2[C@H](C)O3)c1C(F)(F)F [Compound 162, (2S,3S)-2-((((5S,5aS,6S,9R)-2-(5-Amino-4-fluoro-3-methyl-2-(trifluoromethyl)phenyl)-1-fluoro-5-methyl-5a,6,7,8,9,10-hexahydro-5H-4-oxa-3,10a,11,13,14-pentaaza-6,9-methanonaphtho[1,8-ab]heptalen-12-yl)oxy)methyl)-1-methylpyrrolidin-3-ol]
- IC50 (KRAS WT): 41.3 nM
- IC50 (KRAS G12D): 0.13 nM

SMILES: Cc1c(F)c(N)cc(-c2nc3c4c(nc(OCCCN5C[C@H]6C[C@@H]5CO6)nc4c2F)N2C[C@H]4CC[C@H](N4)[C@H]2[C@H](C)O3)c1C(F)(F)F [Compound 163, 5-((5S,5aS,6S,9R)-12-(3-((1R,4R)-2-Oxa-5-azabicyclo[2.2.1]heptan-5-yl)propoxy)-1-fluoro-5-methyl-5a,6,7,8,9,10-hexahydro-5H-4-oxa-3,10a,11,13,14-pentaaza-6,9-methanonaphtho[1,8-ab]heptalen-2-yl)-2-fluoro-3-methyl-4-(trifluoromethyl)aniline]
- IC50 (KRAS WT): 19.6 nM
- IC50 (KRAS G12D): 0.11 nM

SMILES: Cc1c(F)c(N)cc(-c2nc3c4c(nc(OCCCN5C[C@@H]6C[C@H]5CO6)nc4c2F)N2C[C@H]4CC[C@H](N4)[C@H]2[C@H](C)O3)c1C(F)(F)F [Compound 164, 5-((5S,5aS,6S,9R)-12-(3-((1S,4S)-2-oxa-5-azabicyclo[2.2.1]heptan-5-yl)propoxy)-1-fluoro-5-methyl-5a,6,7,8,9,10-hexahydro-5H-4-oxa-3,10a,11,13,14-pentaaza-6,9-methanonaphtho[1,8-ab]heptalen-2-yl)-2-fluoro-3-methyl-4-(trifluoromethyl)aniline]
- IC50 (KRAS WT): 30.6 nM
- IC50 (KRAS G12D): 0.15 nM

SMILES: Cc1c(F)c(N)cc(-c2nc3c4c(nc(OCC5(CN6CCO[C@H](C)C6)CC5)nc4c2F)N2C[C@H]4CC[C@H](N4)[C@H]2[C@H](C)O3)c1C(F)(F)F [Compound 168, 2-Fluoro-5-((5S,5aS,6S,9R)-1-fluoro-5-methyl-12-((1-(((R)-2-methylmorpholino)methyl)cyclopropyl)methoxy)-5a,6,7,8,9,10-hexahydro-5H-4-oxa-3,10a,11,13,14-pentaaza-6,9-methanonaphtho[1,8-ab]heptalen-2-yl)-3-methyl-4-(trifluoromethyl)aniline]
- IC50 (KRAS WT): 1.68 nM
- IC50 (KRAS G12D): 0.12 nM

SMILES: Cc1c(F)c(N)cc(-c2nc3c4c(nc(OCC5(CN6C[C@@H]7C[C@H]6CO7)CC5)nc4c2F)N2C[C@H]4CC[C@H](N4)[C@H]2[C@H](C)O3)c1C(F)(F)F [Compound 169, 5-((5S,5aS,6S,9R)-12-((1-(((1S,4S)-2-Oxa-5-azabicyclo[2.2.1]heptan-5-yl)methyl)cyclopropyl)methoxy)-1-fluoro-5-methyl-5a,6,7,8,9,10-hexahydro-5H-4-oxa-3,10a,11,13,14-pentaaza-6,9-methanonaphtho[1,8-ab]heptalene-2-yl)-2-fluoro-3-methyl-4-(trifluoromethyl)aniline]
- IC50 (KRAS WT): 2.31 nM
- IC50 (KRAS G12D): 0.1 nM

SMILES: Cc1c(F)c(N)cc(-c2nc3c4c(nc(OCC5(CN6C[C@H]7C[C@@H]6CO7)CC5)nc4c2F)N2C[C@H]4CC[C@H](N4)[C@H]2[C@H](C)O3)c1C(F)(F)F [Compound 170, 5-((5S,5aS,6S,9R)-12-((1-(((1R,4R)-2-Oxa-5-azabicyclo[2.2.1]heptan-5-yl)methyl)cyclopropyl)methoxy)-1-fluoro-5-methyl-5a,6,7,8,9,10-hexahydro-5H-4-oxa-3,10a,11,13,14-pentaaza-6,9-methanonaphtho[1,8-ab]heptalene-2-yl)-2-fluoro-3-methyl-4-(trifluoromethyl)aniline]
- IC50 (KRAS WT): 2.16 nM
- IC50 (KRAS G12D): 0.09 nM

SMILES: Cc1c(F)c(N)cc(-c2nc3c4c(nc(OCC5(CN6CCO[C@H](CF)C6)CC5)nc4c2F)N2C[C@H]4CC[C@H](N4)[C@H]2[C@H](C)O3)c1C(F)(F)F [Compound 171, 2-Fluoro-5-((5S,5aS,6S,9R)-1-fluoro-12-((1-(((S)-2-(fluoromethyl)morpholino)methyl)cyclopropyl)methoxy)-5-methyl-5a,6,7,8,9,10-hexahydro-5H-4-oxa-3,10a,11,13,14-pentaaza-6,9-methanonaphtho[1,8-ab]heptalen-2-yl)-3-methyl-4-(trifluoromethyl)aniline]
- IC50 (KRAS WT): 13.7 nM
- IC50 (KRAS G12D): 0.253 nM
